Test results from US7622594B2, “Glucocortioid mimetics, methods of making them, pharmaceutical compositions, and uses thereof” (Boehringer Ingelheim Pharmaceuticals, Inc., priority 2005, dated 2009).

Tested on: IL-6 production in human foreskin fibroblast cells
Assay: Inhibition of IL-6 production in fibroblasts (cell assay for transrepression)
Assay type: cell-based
Details: IL-1 stimulated human foreskin fibroblasts
Protocol: Human foreskin fibroblast cells produce IL-6 in response to stimulation by proinflammatory cytokine IL-1.
Human foreskin fibroblast cells (ATCC Cat. No. CRL-2429) are plated on 96 well plates at 5,000 cells per well the day before use, in Iscove's Modified Dulbecco's Media (GibcoBRL Life Technologies Cat. No. 12440-053) supplemented with 10% charcoal filtered FBS (Clonetech Cat. No. SH30068) and Gentamycin (GibcoBRL Life Technologies Cat. No. 15710-064). On the next day, media in the wells is replaced with fresh media. Cells are treated with IL-1 (rhIL-1α, R&D Systems Cat. No. 200-LA) to a final concentration of 1 ng/mL, and with test compounds to final concentrations of 10^−5 M to 10^−8 M, in a total volume of 200 μL per well. Samples are done in duplicates. […] Positive control wells receive IL-1 only and represent maximum (or 100%) amount of IL-6 production. Plates are incubated at 37° C. overnight (15 to 18 hours), and supernatants are harvested at the end of incubation. IL-6 levels in the supernatants are determined by the ELISA kits for IL-6 (MedSystems Diagnostics GmbH, Vienna, Austria, Cat. No. BMS213TEN) according to manufacture's instructions. The extent of inhibition of IL-6 by test compounds is expressed in percentage relative to positive controls. IC50 values of test compounds are derived by non-linear curve fitting.

Structure (SMILES) | agonistic activity by inhibiting IL-6 production in Fibroblasts
OC(c1ccc2c(cnn2-c2ccc(F)cc2)c1)(c1csc2ccccc12)C(F)(F)F (stereo not shown) [1-Benzo[b]thiophen-3-yl-2,2,2-trifluoro-1-[1-(4-fluorophenyl)-1H-indazol-5-yl]ethanol] | agonistic activity
OC(c1ccc2c(cnn2-c2ccc(F)cc2)c1)(c1ccc(F)c2ccccc12)C(F)(F)F (stereo not shown) [2,2,2-Trifluoro-1-(4-fluoronaphthalen-1-yl)-1-[1-(4-fluorophenyl)-1H-indazol-5-yl]ethanol] | agonistic activity
OC(c1ccc2c(cnn2-c2ccccc2)c1)(c1ccnc2ccccc12)C(F)(F)F (stereo not shown) [2,2,2-Trifluoro-1-(1-phenyl-1H-indazol-5-yl)-1-quinolin-4-ylethanol] | agonistic activity
OC(c1ccc2c(cnn2-c2ccccc2)c1)(c1cccc2ccccc12)C(F)(F)F (stereo not shown) [2,2,2-Trifluoro-1-naphthalen-1-yl-1-(1-phenyl-1H-indazol-5-yl)ethanol] | agonistic activity
OC(c1ccc2c(cnn2-c2ccccc2)c1)(c1ccc(F)c2ccccc12)C(F)(F)F (stereo not shown) [2,2,2-Trifluoro-1-(4-fluoronaphthalen-1-yl)-1-(1-phenyl-1H-indazol-5-yl)ethanol] | agonistic activity
Cc1ccc(C(O)(c2ccc3c(cnn3-c3ccc(F)cc3)c2)C(F)(F)F)c2ccccc12 (stereo not shown) [2,2,2-Trifluoro-1-[1-(4-fluorophenyl)-1H-indazol-5-yl]-1-(4-methylnaphthalen-1-yl)ethanol] | agonistic activity
OC(c1ccc2c(cnn2-c2ccc(F)cc2)c1)(c1cccc2ccccc12)C(F)(F)F (stereo not shown) [2,2,2-Trifluoro-1-[1-(4-fluorophenyl)-1H-indazol-5-yl]-1-naphthalen-1-ylethanol] | agonistic activity
OC(c1ccc2c(cnn2-c2ccccc2)c1)(c1csc2ccccc12)C(F)(F)F (stereo not shown) [1-Benzo[b]thiophen-3-yl-2,2,2-trifluoro-1-(1-phenyl-1H-indazol-5-yl)ethanol] | agonistic activity
OC(c1ccc(F)c(Cl)c1)(c1ccc2c(cnn2-c2ccccc2)c1)C(F)(F)F (stereo not shown) [1-(3-Chloro-4-fluorophenyl)-2,2,2-trifluoro-1-(1-phenyl-1H-indazol-5-yl)ethanol] | agonistic activity
OC(c1ccc(F)c(Cl)c1)(c1ccc2c(cnn2-c2ccc(F)cc2)c1)C(F)(F)F (stereo not shown) [1-(3-Chloro-4-fluorophenyl)-2,2,2-trifluoro-1-[1-(4-fluorophenyl)-1H-indazol-5-yl]ethanol] | agonistic activity
